Assay results from ChEMBL document CHEMBL6109125, “A New Protractor Potentiates Glucagon-Like Peptide 1 with Slow-Release Depot and Long-Term Action” (J Med Chem, 2025).

Legend:
Assay type in all cases: functional, cell-based
[1] = target: T1, Glucagon-like peptide 1 receptor (Homo sapiens, UniProt P43220); experiment: Agonist activity at GLP-1R (unknown origin) expressed in HEK293 cells co-expressing CRE-Luc assessed as increase in intracellular cAMP accumulation in presence of 2% HSA by luciferase based assay
T1 sequence (P43220 whole entry): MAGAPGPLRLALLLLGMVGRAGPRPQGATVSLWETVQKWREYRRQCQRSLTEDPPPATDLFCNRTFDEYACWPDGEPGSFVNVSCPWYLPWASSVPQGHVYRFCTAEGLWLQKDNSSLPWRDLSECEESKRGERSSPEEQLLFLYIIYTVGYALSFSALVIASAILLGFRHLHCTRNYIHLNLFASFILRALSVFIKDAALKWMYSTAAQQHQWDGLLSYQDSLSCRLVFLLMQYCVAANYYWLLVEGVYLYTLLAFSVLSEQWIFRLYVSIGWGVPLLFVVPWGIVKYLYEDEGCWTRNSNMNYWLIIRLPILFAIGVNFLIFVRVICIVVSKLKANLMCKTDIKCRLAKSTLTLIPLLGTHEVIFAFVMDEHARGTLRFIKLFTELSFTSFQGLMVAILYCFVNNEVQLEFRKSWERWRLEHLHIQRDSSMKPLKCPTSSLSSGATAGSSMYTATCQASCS

[2] = target: T1, Glucagon-like peptide 1 receptor; experiment: Agonist activity at GLP-1R (unknown origin) expressed in HEK293 cells co-expressing CRE-Luc assessed as increase in intracellular cAMP accumulation in presence of 10% FBS by luciferase based assay
[3] = target: T1, Glucagon-like peptide 1 receptor; experiment: Agonist activity at GLP-1R (unknown origin) expressed in HEK293 cells co-expressing CRE-Luc assessed as increase in intracellular cAMP accumulation by luciferase based assay

SMILES | EC50 ([1]; hek293) | EC50 ([2]; hek293) | EC50 ([3]; hek293) | EC50 ([1]; read-out: EC50) [pM] | EC50 ([2]; read-out: EC50) [pM] | EC50 ([3]; read-out: EC50) [pM]
CC[C@H](C)[C@H](NC(=O)[C@H](Cc1ccccc1)NC(=O)[C@H](CCC(=O)O)NC(=O)[C@H](CCCCN)NC(=O)[C@H](C)NC(=O)[C@H](C)NC(=O)[C@H](CCC(N)=O)NC(=O)CNC(=O)[C@H](CCC(=O)O)NC(=O)[C@H](CC(C)C)NC(=O)[C@H](Cc1ccc(O)cc1)NC(=O)[C@H](CO)NC(=O)[C@H](CO)NC(=O)[C@@H](NC(=O)[C@H](CC(=O)O)NC(=O)[C@H](CO)NC(=O)[C@@H](NC(=O)[C@H](Cc1ccccc1)NC(=O)[C@@H](NC(=O)CNC(=O)[C@@H](N)CCC(=O)O)[C@@H](C)O)[C@@H](C)O)C(C)C)C(=O)N[C@@H](C)C(=O)N[C@@H](Cc1c[nH]c2ccccc12)C(=O)N[C@@H](CC(C)C)C(=O)N[C@H](C(=O)N[C@@H](CCCNC(=N)N)C(=O)NCC(=O)N[C@@H](CCCNC(=N)N)C(=O)NCC(N)=O)C(C)C | No_effect | No_effect | No_effect | – | – | –
CCOc1ccc(Nc2ccc(/C(=C3C=C/C(=[N+](\CC)Cc4cccc(S(=O)(=O)[O-])c4)C=C/3C)c3ccc(N(CC)Cc4cccc(S(=O)(=O)NCCCCCC(=O)NCCOCCOCC(=O)NCCOCCOCC(=O)NCCCC[C@H](NC(=O)[C@H](C)NC(=O)[C@H](C)NC(=O)[C@H](CCC(N)=O)NC(=O)CNC(=O)[C@H](CCC(=O)O)NC(=O)[C@H](CC(C)C)NC(=O)[C@H](Cc5ccc(O)cc5)NC(=O)[C@H](CO)NC(=O)[C@H](CO)NC(=O)[C@@H](NC(=O)[C@H](CC(=O)O)NC(=O)[C@H](CO)NC(=O)[C@@H](NC(=O)[C@H](Cc5ccccc5)NC(=O)[C@@H](NC(=O)CNC(=O)[C@H](CCC(=O)O)NC(=O)C(C)(C)NC(=O)[C@@H](N)Cc5c[nH]cn5)[C@@H](C)O)[C@@H](C)O)C(C)C)C(=O)N[C@@H](CCC(=O)O)C(=O)N[C@@H](Cc5ccccc5)C(=O)N[C@H](C(=O)N[C@@H](C)C(=O)N[C@@H](Cc5c[nH]c6ccccc56)C(=O)N[C@@H](CC(C)C)C(=O)N[C@H](C(=O)N[C@@H](CCCNC(=N)N)C(=O)NCC(=O)N[C@@H](CCCNC(=N)N)C(=O)NCC(=O)O)C(C)C)[C@@H](C)CC)c4)cc3C)cc2)cc1 | – | – | – | 3.94 | 2.93 | 0.79
CCOc1ccc(Nc2ccc(/C(=C3C=C/C(=[N+](\CC)Cc4cccc(S(=O)(=O)[O-])c4)C=C/3C)c3ccc(N(CC)Cc4cccc(S(=O)(=O)NCCCCCC(=O)N[C@@H](CCC(=O)NCCCC[C@H](NC(=O)[C@H](C)NC(=O)[C@H](C)NC(=O)[C@H](CCC(N)=O)NC(=O)CNC(=O)[C@H](CCC(=O)O)NC(=O)[C@H](CC(C)C)NC(=O)[C@H](Cc5ccc(O)cc5)NC(=O)[C@H](CO)NC(=O)[C@H](CO)NC(=O)[C@@H](NC(=O)[C@H](CC(=O)O)NC(=O)[C@H](CO)NC(=O)[C@@H](NC(=O)[C@H](Cc5ccccc5)NC(=O)[C@@H](NC(=O)CNC(=O)[C@H](CCC(=O)O)NC(=O)C(C)(C)NC(=O)[C@@H](N)Cc5c[nH]cn5)[C@@H](C)O)[C@@H](C)O)C(C)C)C(=O)N[C@@H](CCC(=O)O)C(=O)N[C@@H](Cc5ccccc5)C(=O)N[C@H](C(=O)N[C@@H](C)C(=O)N[C@@H](Cc5c[nH]c6ccccc56)C(=O)N[C@@H](CC(C)C)C(=O)N[C@H](C(=O)N[C@@H](CCCNC(=N)N)C(=O)NCC(=O)N[C@@H](CCCNC(=N)N)C(=O)NCC(=O)O)C(C)C)[C@@H](C)CC)C(=O)O)c4)cc3C)cc2)cc1 | – | – | – | 9.1 | 2.92 | 1.17
CCOc1ccc(Nc2ccc(/C(=C3C=C/C(=[N+](\CC)Cc4cccc(S(=O)(=O)[O-])c4)C=C/3C)c3ccc(N(CC)Cc4cccc(S(=O)(=O)NCCCCCC(=O)NCCOCCOCC(=O)NCCCC[C@H](NC(=O)[C@H](C)NC(=O)[C@H](C)NC(=O)[C@H](CCC(N)=O)NC(=O)CNC(=O)[C@H](CCC(=O)O)NC(=O)[C@H](CC(C)C)NC(=O)[C@H](Cc5ccc(O)cc5)NC(=O)[C@H](CO)NC(=O)[C@H](CO)NC(=O)[C@@H](NC(=O)[C@H](CC(=O)O)NC(=O)[C@H](CO)NC(=O)[C@@H](NC(=O)[C@H](Cc5ccccc5)NC(=O)[C@@H](NC(=O)CNC(=O)[C@H](CCC(=O)O)NC(=O)C(C)(C)NC(=O)[C@@H](N)Cc5c[nH]cn5)[C@@H](C)O)[C@@H](C)O)C(C)C)C(=O)N[C@@H](CCC(=O)O)C(=O)N[C@@H](Cc5ccccc5)C(=O)N[C@H](C(=O)N[C@@H](C)C(=O)N[C@@H](Cc5c[nH]c6ccccc56)C(=O)N[C@@H](CC(C)C)C(=O)N[C@H](C(=O)N[C@@H](CCCNC(=N)N)C(=O)NCC(=O)N[C@@H](CCCNC(=N)N)C(=O)NCC(=O)O)C(C)C)[C@@H](C)CC)c4)cc3C)cc2)cc1 | – | – | – | 14.5 | – | 3.35
CCOc1ccc(Nc2ccc(/C(=C3C=C/C(=[N+](\CC)Cc4ccc(S(=O)(=O)[O-])cc4)C=C/3C)c3ccc(N(CC)Cc4cccc(S(=O)(=O)NCCCCCC(=O)NCc5ccc(C(=O)NCCCC[C@H](NC(=O)[C@H](C)NC(=O)[C@H](C)NC(=O)[C@H](CCC(N)=O)NC(=O)CNC(=O)[C@H](CCC(=O)O)NC(=O)[C@H](CC(C)C)NC(=O)[C@H](Cc6ccc(O)cc6)NC(=O)[C@H](CO)NC(=O)[C@H](CO)NC(=O)[C@@H](NC(=O)[C@H](CC(=O)O)NC(=O)[C@H](CO)NC(=O)[C@@H](NC(=O)[C@H](Cc6ccccc6)NC(=O)[C@@H](NC(=O)CNC(=O)[C@H](CCC(=O)O)NC(=O)C(C)(C)NC(=O)[C@@H](N)Cc6c[nH]cn6)[C@@H](C)O)[C@@H](C)O)C(C)C)C(=O)N[C@@H](CCC(=O)O)C(=O)N[C@@H](Cc6ccccc6)C(=O)N[C@H](C(=O)N[C@@H](C)C(=O)N[C@@H](Cc6c[nH]c7ccccc67)C(=O)N[C@@H](CC(C)C)C(=O)N[C@H](C(=O)N[C@@H](CCCNC(=N)N)C(=O)NCC(=O)N[C@@H](CCCNC(=N)N)C(=O)NCC(=O)O)C(C)C)[C@@H](C)CC)cc5)c4)cc3C)cc2)cc1 | – | – | – | 3.22 | 4.2 | 1.08
CCOc1ccc(Nc2ccc(/C(=C3C=C/C(=[N+](\CC)Cc4cccc(S(=O)(=O)[O-])c4)C=C/3C)c3ccc(N(CC)Cc4cccc(S(=O)(=O)NCCCCCC(=O)NCCOCCOCC(=O)NCCOCCOCC(=O)NCCOCCOCC(=O)NCCCC[C@H](NC(=O)[C@H](C)NC(=O)[C@H](C)NC(=O)[C@H](CCC(N)=O)NC(=O)CNC(=O)[C@H](CCC(=O)O)NC(=O)[C@H](CC(C)C)NC(=O)[C@H](Cc5ccc(O)cc5)NC(=O)[C@H](CO)NC(=O)[C@H](CO)NC(=O)[C@@H](NC(=O)[C@H](CC(=O)O)NC(=O)[C@H](CO)NC(=O)[C@@H](NC(=O)[C@H](Cc5ccccc5)NC(=O)[C@@H](NC(=O)CNC(=O)[C@H](CCC(=O)O)NC(=O)C(C)(C)NC(=O)[C@@H](N)Cc5c[nH]cn5)[C@@H](C)O)[C@@H](C)O)C(C)C)C(=O)N[C@@H](CCC(=O)O)C(=O)N[C@@H](Cc5ccccc5)C(=O)N[C@H](C(=O)N[C@@H](C)C(=O)N[C@@H](Cc5c[nH]c6ccccc56)C(=O)N[C@@H](CC(C)C)C(=O)N[C@H](C(=O)N[C@@H](CCCNC(=N)N)C(=O)NCC(=O)N[C@@H](CCCNC(=N)N)C(=O)NCC(=O)O)C(C)C)[C@@H](C)CC)c4)cc3C)cc2)cc1 | – | – | – | 4.31 | 1.46 | 0.83
CCOc1ccc(Nc2ccc(/C(=C3C=C/C(=[N+](\CC)Cc4ccc(S(=O)(=O)[O-])cc4)C=C/3C)c3ccc(N(CC)Cc4cccc(S(=O)(=O)NCCCCCC(=O)NCCCC[C@H](NC(=O)[C@H](C)NC(=O)[C@H](C)NC(=O)[C@H](CCC(N)=O)NC(=O)CNC(=O)[C@H](CCC(=O)O)NC(=O)[C@H](CC(C)C)NC(=O)[C@H](Cc5ccc(O)cc5)NC(=O)[C@H](CO)NC(=O)[C@H](CO)NC(=O)[C@@H](NC(=O)[C@H](CC(=O)O)NC(=O)[C@H](CO)NC(=O)[C@@H](NC(=O)[C@H](Cc5ccccc5)NC(=O)[C@@H](NC(=O)CNC(=O)[C@H](CCC(=O)O)NC(=O)C(C)(C)NC(=O)[C@@H](N)Cc5c[nH]cn5)[C@@H](C)O)[C@@H](C)O)C(C)C)C(=O)N[C@@H](CCC(=O)O)C(=O)N[C@@H](Cc5ccccc5)C(=O)N[C@H](C(=O)N[C@@H](C)C(=O)N[C@@H](Cc5c[nH]c6ccccc56)C(=O)N[C@@H](CC(C)C)C(=O)N[C@H](C(=O)N[C@@H](CCCNC(=N)N)C(=O)NCC(=O)N[C@@H](CCCNC(=N)N)C(=O)NCC(=O)O)C(C)C)[C@@H](C)CC)c4)cc3C)cc2)cc1 | – | – | – | 8.82 | – | –
CCOc1ccc(Nc2ccc(/C(=C3C=C/C(=[N+](\CC)Cc4cccc(S(=O)(=O)[O-])c4)C=C/3C)c3ccc(N(CC)Cc4cccc(S(=O)(=O)NCCCCCC(=O)N[C@@H](CCC(=O)NCCOCCOCC(=O)NCCCC[C@H](NC(=O)[C@H](C)NC(=O)[C@H](C)NC(=O)[C@H](CCC(N)=O)NC(=O)CNC(=O)[C@H](CCC(=O)O)NC(=O)[C@H](CC(C)C)NC(=O)[C@H](Cc5ccc(O)cc5)NC(=O)[C@H](CO)NC(=O)[C@H](CO)NC(=O)[C@@H](NC(=O)[C@H](CC(=O)O)NC(=O)[C@H](CO)NC(=O)[C@@H](NC(=O)[C@H](Cc5ccccc5)NC(=O)[C@@H](NC(=O)CNC(=O)[C@H](CCC(=O)O)NC(=O)C(C)(C)NC(=O)[C@@H](N)Cc5c[nH]cn5)[C@@H](C)O)[C@@H](C)O)C(C)C)C(=O)N[C@@H](CCC(=O)O)C(=O)N[C@@H](Cc5ccccc5)C(=O)N[C@H](C(=O)N[C@@H](C)C(=O)N[C@@H](Cc5c[nH]c6ccccc56)C(=O)N[C@@H](CC(C)C)C(=O)N[C@H](C(=O)N[C@@H](CCCNC(=N)N)C(=O)NCC(=O)N[C@@H](CCCNC(=N)N)C(=O)NCC(=O)O)C(C)C)[C@@H](C)CC)C(=O)O)c4)cc3C)cc2)cc1 | – | – | – | 3.29 | – | 0.63
